We go through one compound from patent publication US10144726B2, “Modulators of the p70S6 kinase for use in the treatment of brain disorders and triple-negative breast cancer” (SENTINEL ONCOLOGY LIMITED, priority 2015, dated 2018).

For assay [1], the system named is phosphorylation of S6 Ser235/236 in MCF-7 cells. The assay can be described thus: MCF-7 pS6 ELISA (phosphorylation of S6 Ser235/236). The conditions noted are these: Homo sapiens, MCF7; S6 Ser235/236, 1% FBS, 2 h; read-out: (b) MCF-7 pS6 ELISA IC50. The assay is classed as cell-based. The procedure: The following assay provides IC50 values for inhibition of P70S6K activity in a whole cell assay by determining effects on the phosphorylation of S6^Ser235/236 in MCF-7 cells by ELISA.
The following protocol was used: • 1) MCF-7 cells were seeded in 96-well plates at a density of 7000 cells per well and allowed to adhere for 6 h in media containing 10% FBS. • 2) The full serum media was replaced and cells incubated overnight in media containing 1% FBS, prior to addition of test compounds. • 3) Test compounds were prepared from 10 mM DMSO stocks to give final concentration ranges as indicated on graphs. DMSO was constant at a final concentration of 1%. • 4) Test compounds were incubated with cells in duplicate for 2 h at 37° C/5% CO2 in a humidified atmosphere. • 5) The media was removed and cells were lysed by freeze-thawing in cell lysis buffer. • 6) Detection of phosphorylated S6Ser235/236 was then carried out using a PathScan ELISA kit (Cell Signaling Technology #7205). • 7) Lysates were diluted 1:1 with sample diluent before being applied to wells coated with an antibody against phosphorylated-S6 protein. • 8) The ELISA was then performed as stated in the manufacturers' instructions. • 9) The raw data were normalised to control values and analysed using a 4-parameter logistic equation in GraphPad Prism.
For orientation: In an ELISA, binding on a coated surface is turned into a signal by an enzyme label.

The subject of a further assay is MDA-MB-231 cells. The assay can be described thus: Tumour initiation and metastasis in an in vivo model of triple negative breast cancer (MDA-MB-231, mammary fat pad). On the set-up: species or system female athymic nude mice. An excerpt: In order to test the efficacy of an inhibitor of S6K1 in an in vivo model of tumour initiation and metastasis, the following experiment was established:
A total of 30 female athymic nude mice (Hsd:Athymic Nude-Foxn1^nu) were purchased from Harlan (UK) and acclimatised for 7 days prior to study commencement. Animals were housed in IVC cages (5 per cage) with individual mice identified by ear punch. All animals were allowed free access to a standard certified commercial diet and sanitised water during the study. The holding room was maintained under standard conditions: 20-24° C., 40-70% humidity and a 12 h light/dark cycle.
On day −1, animals were randomly assigned to treatment groups as indicated in the table below, and drug treatment commenced. On day 0, MDA-MB-231 cells (1×10^6 in matrigel) were implanted into the second mammary fat pad.
The dosing route was PO and the formulation was as follows: 10% DMSO/90% hydroxypropyl-β-cyclodextrin (20% w/v aqueous)
(1) Time to palpation of tumour (latency) (2) tumour volume (3) tumour and organ weights as a measure of metastasis (4) visual appearance of metastatic nodules in the lungs

Assay [2] deals with audiogenic seizures in FXS (Fmr1 KO) mice. The assay can be described thus: Audiogenic seizure assay, in vivo model of Fragile X Syndrome. Also on record: species or system FVB background. To be noted: 25 mg/kg QD × 7 PO. From the text: Seizures occur in conjunction with FXS and autism in up to one-quarter of children with these disorders (Berry-Kravis E (2002) Epilepsy in fragile X syndrome. Dev. Med. Child Neurol. 44(11):724-728). […] The audiogenic seizure assay (AGS) is a well documented mouse model of FXS (Audiogenic seizures susceptibility in transgenic mice with fragile X syndrome, Epilepsia. 2000 January; 41(1):19-23). In such a model it is possible to dose compounds to observe effects on susceptibility of the mice to audiogenic seizures. The following AGS experiment was set up to test the efficacy of compounds of this application:
Strain of FXS Mouse Used: FVB Background
Vehicle used: 10% DMSO/90% hydroxypropyl-β-cyclodextrin (20% w/v aqueous)
Animals were assessed in AGS following 7 consecutive days of dosing.
The experimental chamber consisted of a plastic cage of dimensions 25×25×47 cm in which a doorbell (Electrical bell Heath Zenith, model 172C-A) had been mounted on the cage roof.
Mice were taken from their housing room one by one and transferred into the experimental chamber and allowed to explore the novel environment (basal noise ˜65 dB) for a period of 30 seconds after which point the bell was rung (124 dB).
The resulting motor responses were classified using a scale modified from the one originally described by Jobe et al. (1973): no response (NR: pause or continuous exploration), wild running (WR), clonic seizure (CS), tonic seizure (TS), respiratory arrest and/or death (RA). In order to define the intensity of the behavioral response a seizure severity score was used (SSS) (Musumeci et al., 2000), consisting of a score assigned to each animal depending on its behavioral response (NR=0, WR=1, CS=2, TS=3, RA=4). To determine the SSS for a treatment group the scores of the individual mice are summed. The motor response rate is defined as the percentage of animals per group responding to the stimulus.

Setting [3] is: 250 mg/kg p.o. QD 21 days, vs vehicle.

Each structure is given as a SMILES string.

For orientation: IC50 means the concentration that inhibits the measured activity by half.

Consider `C[C@@H](Nc1cnc2cc(-c3cn[nH]c3)ccc2n1)c1cccc(Cl)c1` [Example 15], for which the IC50 in assay [1] was 0.5 µM. Further, the “Mean no. of nodules per lung” value in the assay with MDA-MB-231 cells (250 mg/kg QD × 21, at necroscopy) stood at 1. Further, in the assay on MDA-MB-231 cells (setting [3]), the “Lung weight at day 21” value is “reduction in weight of lungs”, the “Rate of tumour incidence” value was “decreases”, the “Time to palpation of tumour (latency)” value was “delays” and the “Tumour weight at day 21” value was “weighed significantly less”. Besides, in the assay on MDA-MB-231 cells (250 mg/kg p.o. QD 21 days, vs vehicle, p<0.05), the Tumour volume entry is “reduction in volume of tumours which is statistically significant over vehicle”. Further, in assay [2], the “CS (clonic seizure), number of animals” value stood at 0; the “NR (no response), number of animals” value is 6; the “RA (respiratory arrest and/or death), number of animals” value is listed as 0; the “SSS (seizure severity score, summed for the group)” value was found to be 2. Also, in assay [2], the “TS (tonic seizure), number of animals” value stood at 0 and the “WR (wild running), number of animals” value is 2. Besides, in assay [2] (vs vehicle, p<0.01 by Fisher's test), the “Incidence of audiogenic seizures and severity of response” value is “reduced”.
